Experimental data as given in publication PMC7435673, “Synthesis of α-Aminophosphonic Acid Derivatives Through the Addition of O- and S-Nucleophiles to 2H-Azirines and Their Antiproliferative Effect on A549 Human Lung Adenocarcinoma Cells” (Molecules, 2020).
Like-named read-outs stand apart in the source and are kept apart here.

Key:
in vitro = conditions: human
From the text: (§1) The cytotoxicity of the new α-aminophosphine oxide and phosphonate acetals 4 and 5, β-keto-α-aminophosphonate 6, aziridines 7, 10 and 14, and allylic α-aminophosphine oxides and phosphonates 8, 9, 11, 12, 15 and 16 was investigated in vitro by checking their antiproliferative activities against the human cancer cell line A549 (carcinomic human alveolar basal epithelial cells). […] In order to assess growth inhibition, cell counting kit (CCK-8) assay was employed. […] Likewise, healthy lung cells, such as MRC-5 non-malignant lung fibroblasts were tested to study the selectivity of the cytotoxicity [49].
(§2) All stock solutions of the investigated compounds were prepared by dissolving the powered materials in appropriate amounts of DMSO. The final concentration of DMSO never exceeded 5% (v/v) in reactions. The stock solution was stored at 5 °C until it was used.
(§3) Cells were cultured according to the supplier’s instructions. […] On day 2, compounds were added and samples were incubated for 48 h. […] The absorbance of each well was determined by an Automatic ELISA Reader System (Multiskan FC, Thermo Fisher Scientific, Waltham, MA, USA) at 450 nm wavelength.

[1] = system: human cancer cell line A549 (carcinomic human alveolar basal epithelial cells); assay: Cytotoxicity (antiproliferative) CCK-8 assay, A549; conditions: for IC50: read-out: Cytotoxicity IC50 Lung A549; for toxicity toward A549 (in words): in vitro, CCK-8
From the text: as §1, §2, §3

[2] = system: MRC-5 non-malignant lung fibroblasts; assay: Cytotoxicity CCK-8 assay, MRC-5 (selectivity); conditions: in vitro, CCK-8
From the text: as §1, §2, §3

[3] = system: Human colon carcinoma cell line (RKO); assay: Cytotoxicity (antiproliferative) CCK-8 assay, RKO; conditions: for IC50: Homo sapiens, Colon carcinoma cell, 48 h, read-out: cytotoxicity value against human colon carcinoma cell line (RKO); for toxicity toward RKO (in words): in vitro, CCK-8
Method: Human colon carcinoma cell line (RKO) was also used to test the antiproliferative activity of some of our compounds. In order to assess growth inhibition, cell counting kit (CCK-8) assay was employed.
as §2
Cells were cultured according to the supplier’s instructions. Cells were seeded in 96-well plates at a density of 2–4 × 10^3 cells per well and incubated overnight in 0.1 mL of media supplied with 10% Fetal Bovine Serum (Lonza) in 5% CO2 incubator at 37 °C. On day 2, compounds were added and samples were incubated for 48 h. After treatment, 10 μL of cell counting kit-8 was added into each well for additional 2 h incubation at 37 °C. The absorbance of each well was determined by an Automatic ELISA Reader System (Multiskan FC, Thermo Fisher Scientific, Waltham, MA, USA) at 450 nm wavelength.

[4] = Cytotoxicity CCK-8 assay, MRC-5 (selectivity); conditions: human, MRC-5 non-malignant lung fibroblasts
From the text: as §1, §2, §3

[5] = CCK-8, 48 h incubation, concentration corresponding to 50% growth inhibition

melting point [°C]	Structure (SMILES)	IC50 ([1]; Homo sapiens, A549, 48 h) [µM]	IC50 at 48 h [4] [µM]	further results
	O=P(c1ccccc1)(c1ccccc1)[C@@H]1N[C@]1(Sc1ccccc1)c1ccccc1 (relative stereo) [Compound 14c, Diphenyl [(2S*,3S*)-3-phenyl-3-(phenylthio)aziridin-2-yl]phosphine oxide]	1.1 ± 0.32		IC50 at 48 h (in vitro): 4.9 ± 0.49 µM; toxicity toward MRC-5 cell line (in words) [2]: good cytotoxicity; IC50 [3]: 9.7 µM
125 to 127	COC(C)(OC)C(N)P(=O)(c1ccccc1)c1ccccc1 (centres unmarked) [Compound 4a, (1-Amino-2,2-dimethoxypropyl) diphenylphosphine oxide]	4.4 ± 0.72	> 50	IC50 [3]: > 50 µM; toxicity toward RKO (in words) [3]: do not exhibited any toxicity
96 to 97	CCC(OC)(OC)C(N)P(=O)(c1ccccc1)c1ccccc1 (centres unmarked) [Compound 4b, (1-Amino-2,2-dimethoxybutyl)diphenylphosphine oxide]	21.3 ± 0.22	> 50	
113 to 115	COC(OC)(c1ccccc1)C(N)P(=O)(c1ccccc1)c1ccccc1 (centres unmarked) [Compound 4c, (1-Amino-2,2-dimethoxy-2-phenylethyl)diphenylphosphine oxide]	16.1 ± 2.03	> 50	
126 to 128	CCOC(C)(OCC)C(N)P(=O)(c1ccccc1)c1ccccc1 (centres unmarked) [Compound 4d, (1-Amino-2,2-diethoxypropyl)diphenylphosphine oxide]	9.6 ± 1.13	> 50	
	COC(C)(OC)C(N)P(=O)(OC(C)C)OC(C)C (centres unmarked) [Compound 4e, Diisopropyl (1-amino-2,2-dimethoxypropyl)phosphonate]			IC50 [1, 5]: 4.6 ± 0.31 µM
	CCOP(=O)(OCC)C(N)C(C)(OC)OC (centres unmarked) [Compound 4f, Diethyl (1-amino-2,2-dimethoxypropyl)phosphonate]			IC50 [1, 5]: 1.3 ± 0.1 µM
205 to 207	COC(C)(OC)C(NS(=O)(=O)c1ccc(C)cc1)P(=O)(c1ccccc1)c1ccccc1 (centres unmarked) [Compound 5a, N-[1-(Diphenylphosphoryl)-2,2-dimethoxypropyl]-4-methylbenzenesulfonamide]	8.2 ± 0.23	> 50	
	COC(C)(OC)C(NS(=O)(=O)c1ccc(C)cc1)P(=O)(OC(C)C)OC(C)C (centres unmarked) [Compound 5b, Diisopropyl [2,2-dimethoxy-1-((4-methylphenyl)sulfonamido)propyl]phosphonate]	1.7 ± 0.3	> 50	
	CCOP(=O)(OCC)C(NS(=O)(=O)c1ccc(C)cc1)C(C)(OC)OC (centres unmarked) [Compound 5c, Diethyl [2,2-dimethoxy-1-((4-methylphenyl)sulfonamido)propyl]phosphonate]	4.5 ± 0.45		IC50 (in vitro): > 50 µM
	CCOC(C)(OCC)C(NS(=O)(=O)c1ccc(C)cc1)P(=O)(OCC)OCC (centres unmarked) [Compound 5d, Diethyl [2,2-diethoxy-1-((4-methylphenyl)sulfonamido)propyl]phosphonate]	3.7 ± 0.49		IC50 (in vitro): > 50 µM
121 to 122	CC(=O)C(NS(=O)(=O)c1ccc(C)cc1)P(=O)(OC(C)C)OC(C)C (centres unmarked) [Compound 6, Diisopropyl [1-((4-methylphenyl)sulfonamido)-2-oxopropyl]phosphonate]	> 50		toxicity toward A549 (in words) [1]: do not exhibited any toxicity
	C=C(OCC(F)(F)F)C(N)P(=O)(c1ccccc1)c1ccccc1 (centres unmarked) [Compound 8, [1-Amino-2-(2,2,2-trifluoroethoxy)allyl]diphenylphosphine oxide]	> 50	> 50	toxicity toward A549 (in words) [1]: do not exhibited any toxicity effect
201 to 203	C=C(OCC(F)(F)F)C(NS(=O)(=O)c1ccc(C)cc1)P(=O)(c1ccccc1)c1ccccc1 (centres unmarked) [Compound 9, N-[1-(Diphenylphosphoryl)-2-(2,2,2-trifluoroethoxy)allyl]-4-methylbenzenesulfonamide]	3.5 ± 0.77	> 50	
	C=C(Oc1ccccc1)C(N)P(=O)(c1ccccc1)c1ccccc1 (centres unmarked) [Compound 11a, (1-Amino-2-phenoxyallyl)diphenylphosphine oxide]	1.9 ± 0.13	> 50	IC50 [3]: > 50 µM; toxicity toward RKO (in words) [3]: do not exhibited any toxicity
	C=C(Oc1ccc2ccccc2c1)C(N)P(=O)(c1ccccc1)c1ccccc1 (centres unmarked) [Compound 11b, [1-Amino-2-(naphyhalen-2-yloxy)allyl]diphenylphosphine oxide]	2.7 ± 0.44	33.6 ± 3.73	
	C=C(Sc1ccccc1)C(N)P(=O)(c1ccccc1)c1ccccc1 (centres unmarked) [Compound 15a, [1-Amino-2-(phenylthio)allyl]diphenylphosphine oxide]	2.6 ± 0.68	15.9 ± 2.79	IC50 [3]: > 50 µM; toxicity toward RKO (in words) [3]: do not exhibited any toxicity
	C=C(Sc1ccc(C)cc1)C(N)P(=O)(c1ccccc1)c1ccccc1 (centres unmarked) [Compound 15b, [1-Amino-2-(p-tolylthio)allyl]diphenylphosphine oxide]	5.1 ± 0.77	14.9 ± 1.61	
	C=C(Sc1ccc(F)cc1)C(N)P(=O)(c1ccccc1)c1ccccc1 (centres unmarked) [Compound 15c, [1-Amino-2-((4-fluorophenyl)thio)allyl]diphenylphosphine oxide]	0.1 ± 0.08	> 50	IC50 [3]: > 50 µM; toxicity toward RKO (in words) [3]: do not exhibited any toxicity
	C=C(Sc1ccc(OC)cc1)C(N)P(=O)(c1ccccc1)c1ccccc1 (centres unmarked) [Compound 15d, [1-Amino-2-((4-methoxyphenyl)thio)allyl]diphenylphosphine oxide]	2.6 ± 0.42	> 50	
	C=C(Sc1ccccc1)C(N)P(=O)(OCC)OCC (centres unmarked) [Compound 15e, Diethyl [1-amino-2-(phenylthio)allyl]phosphonate]			IC50 [1, 5]: 7.2 ± 0.49 µM
199 to 201	C=C(Sc1ccccc1)C(NS(=O)(=O)c1ccc(C)cc1)P(=O)(c1ccccc1)c1ccccc1 (centres unmarked) [Compound 16a, N-[1-(Diphenylphosphoryl)-2-(phenylthio)allyl]-4-methylbenzenesulfonamide]	1.2 ± 0.09	> 50	
180 to 182	C=C(Sc1ccc(C)cc1)C(NS(=O)(=O)c1ccc(C)cc1)P(=O)(c1ccccc1)c1ccccc1 (centres unmarked) [Compound 16b, N-[1-(Diphenylphosphoryl)-2-(p-tolylthio)allyl]-4-methylbenzene-sulfonamide]	2.1 ± 0.15	> 50	

Structure (SMILES)	melting point [°C]	IC50 ([1]; Homo sapiens, A549, 48 h) [µM]	IC50 at 48 h [4] [µM]	further results
C[C@@]1(OCC(F)(F)F)N[C@H]1P(=O)(c1ccccc1)c1ccccc1 (relative stereo) [Compound 7, [(2S*,3S*)-3-Methyl-3-(2,2,2-trifluoroethoxy)aziridin-2-yl]diphenylphosphine oxide]	98 to 100	3.6 ± 0.7		IC50 at 48 h (in vitro): > 50 µM
C[C@@]1(Oc2ccccc2)N[C@H]1P(=O)(c1ccccc1)c1ccccc1 (relative stereo) [Compound 10a, [(2S*,3S*)-3-Methyl-3-phenoxyaziridin-2-yl]diphenylphosphine oxide]	124 to 126	13.3 ± 1.69		IC50 at 48 h (in vitro): > 50 µM
C=C(Oc1ccccc1)C(NS(=O)(=O)c1ccc(C)cc1)P(=O)(OCC)OCC (centres unmarked) [Compound 12a, Diethyl [1-((4-methylphenyl)sulfonamido)-2-phenoxyallyl]phosphonate]	117 to 119	4.8 ± 0.9		IC50 (in vitro): > 50 µM
C=C(Oc1ccc2ccccc2c1)C(NS(=O)(=O)c1ccc(C)cc1)P(=O)(OCC)OCC (centres unmarked) [Compound 12b, Diethyl [1-((4-methylphenyl)sulfonamido)-2-(naphthalen-2-yloxy)allyl]-phosphonate]	147 to 149	2.1 ± 0.22		IC50 (in vitro): 17.5 ± 1.47 µM
C=C(Sc1ccccc1)C(NS(=O)(=O)c1ccc(C)cc1)P(=O)(OCC)OCC (centres unmarked) [Compound 16c, Diethyl [1-((4-methylphenyl)sulfonamido)-2-(phenylthio)allyl]phosphonate]	99 to 101	0.2 ± 0.07		IC50 (in vitro): 24.1 ± 3.55 µM; IC50 [3]: > 50 µM; toxicity toward RKO (in words) [3]: do not exhibited any toxicity
C=C(Sc1ccc(F)cc1)C(NS(=O)(=O)c1ccc(C)cc1)P(=O)(OCC)OCC (centres unmarked) [Compound 16d, Diethyl [2-((4-fluorophenyl)thio)-1-((4-methylphenyl)sulfonamido)-allyl]-phosphonate]	117 to 119	3 ± 0.98		IC50 (in vitro): > 50 µM
C=C(Sc1ccc(C)cc1)C(NS(=O)(=O)c1ccc(C)cc1)P(=O)(OCC)OCC (centres unmarked) [Compound 16e, Diethyl [1-((4-methylphenyl)sulfonamido)-2-(p-tolylthio)allyl]phos-phonate]	168 to 170	3.9 ± 0.63		IC50 (in vitro): > 50 µM
